# Laboratory results from paper PMC9863027, “Bioactive Alpha-Pyrone and Phenolic Glucosides from the Marine-Derived Metarhizium sp. P2100” (Journal of Fungi, 2022).
# Where two headings read alike, the source gives them in different places.
# What was measured:
# [1] = system: NO production in mouse macrophage; assay: NO production inhibitory activity in LPS-stimulated mouse macrophage (Griess reaction); assay type: cell-based; conditions: concentration of 50 μM; LPS 1 μg/mL; mean ± SD
# Experimental: The bioassay for NO production inhibitory activity was conducted as described by Xia. The mouse macrophage was seeded in 96-well plates. In each well, lipopolysaccharide (LPS) (1 μg/mL) was added after treating it with or without the tested compound for 24 h. The NO production in the supernatant was detected by the Griess reaction. The absorbance at 540 nm was measured with a microplate reader. The NO concentration and the inhibitory rate were calculated through a calibration curve. Dexamethasone was used as the positive control. Experiments were operated in triplicate, and the data were described as the mean ± SD of three independent experiments.
# [2] = system: HEp-2 cells; parameters: method as in earlier work; conditions: read-out: IC50 cytotoxicity against HEp-2; cited from earlier work
# [3] = system: HepG2 cells; parameters: method as in earlier work; conditions: read-out: IC50 cytotoxicity against HepG2; cited from earlier work
# [4] = target: protein tyrosine phosphatase 1B (PTP1B); conditions: read-out: IC50 against PTP1B, cited from earlier work
# [5] = target: T1, α-amylase (Sus scrofa, UniProt P00690); assay: α-amylase inhibition activity (starch substrate, dinitrosalicylic acid reagent); assay type: biochemical; conditions: read-out: IC50 against α-amylase
# T1 sequence (P00690 16-511): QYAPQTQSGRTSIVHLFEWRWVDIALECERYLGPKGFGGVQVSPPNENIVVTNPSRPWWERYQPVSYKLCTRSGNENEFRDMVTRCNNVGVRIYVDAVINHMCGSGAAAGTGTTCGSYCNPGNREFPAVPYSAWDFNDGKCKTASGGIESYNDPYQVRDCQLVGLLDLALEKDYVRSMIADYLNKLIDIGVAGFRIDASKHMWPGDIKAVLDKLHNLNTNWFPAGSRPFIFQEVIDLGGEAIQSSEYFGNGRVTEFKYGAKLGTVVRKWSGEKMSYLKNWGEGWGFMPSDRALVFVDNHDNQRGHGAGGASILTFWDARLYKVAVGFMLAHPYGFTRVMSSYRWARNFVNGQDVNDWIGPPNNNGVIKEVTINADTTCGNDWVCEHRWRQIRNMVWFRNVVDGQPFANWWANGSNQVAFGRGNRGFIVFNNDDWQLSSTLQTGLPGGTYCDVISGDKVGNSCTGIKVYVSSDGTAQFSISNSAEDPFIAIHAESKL
# Experimental: The α-amylase inhibition activity was measured by Milella with minor modifications. Tested compounds and 1-Deoxynojirimycin (1-DNJ) were dissolved in methanol at different concentrations. A substrate solution was prepared with 0.25% starch dissolved in 20 mM phosphate buffer solution (PBS). The enzyme (10 units/mL of α-amylase in PBS, 25 µL) and sample solutions (25 µL) were mixed in Eppendorf vials, and the mixtures were incubated at 37 °C for 10 min. Then, 25 µL of substrate solution was added to each tube, and the reaction mixture was incubated at 37 °C for 10 min. The reaction was terminated by adding 150 µL of dinitrosalicylic acid color reagent. Subsequently, the test tubes were heated for 5 min at 100 °C. After cooling at room temperature, the absorbance was measured at 540 nm. The absorbance of the blank (enzyme solution was added during the boiling) and negative controls (methanol) were recorded. Analyses were performed in triplicate, and the final sample absorbance was obtained by subtracting its corresponding blank reading. The inhibitory activity (%) was calculated as follows: % inhibition=(1−A540 sample/A540 negative control) × 100%
# The half-maximal inhibitory concentration (IC50) values were calculated according to the inhibition curve and the data were shown in the layout of mean ± SEM by GraphPad Prism 6.0 (GraphPad Software, Inc., La Jolla, CA, USA).
Compound,NO production inhibition ratio (%) [1] [%],also measured
"CCCCC(OC1OC(CO)C(OC)C(O)C1O)c1cc(OC)cc(=O)o1 [Compound 3, 7(S)-(4′-methoxy-β-D-glucosyl)-4-methoxy-6-pentyl-2-pyrone]",68.44 ± 3.75,
"COc1cc(C(C)=O)ccc1O[C@@H]1O[C@H](CO)[C@@H](OC)[C@H](O)[C@H]1O [Compound 4, Lecaniside D]",68.10 ± 2.07,
"COc1c(O[C@@H]2O[C@H](CO[C@@H]3OC[C@H](O)[C@H](O)[C@H]3O)[C@@H](O)[C@H](O)[C@H]2O)cc(OC)c2c(=O)c3ccccc3oc12 [3-O-(6-O-α-L-arabinopyranosyl)-β-D-gluco-pyranosyl-1,4-dimethoxyxanthone]",,IC50 [2]: 9 µM; IC50 [3]: 16 µM
"CCCCC(OC1OC(CO)C(OC)C(O)C1O)c1cc(OC)cc(=O)o1 [Compound 2, 7(R)-(4′-methoxy-β-D-glucosyl)-4-methoxy-6-pentyl-2-pyrone]",62.30 ± 1.46,
CCCCCCCCCCCCCCCc1cc(O[C@@H]2O[C@H](CO)[C@@H](O)[C@H](O)[C@H]2O)cc(O)c1C(=O)Oc1cc(C)c(C(=O)O)c(O)c1 [Aquastatin A],,IC50 ([4]; competitive manner): 0.19 µM
"C[C@@H]1C[C@H]2[C@@H]3CCC4=CC(=O)C=C[C@]4(C)[C@@]3(F)[C@@H](O)C[C@]2(C)[C@@]1(O)C(=O)CO [Dexamethasone, reference compound]",63.88 ± 2.07,
Lecaniside C,,IC50 [4]: > 50 µM
4-(4′-methoxy-β-D-glucosyl)-6-pentyl-2-pyrone [Compound 1],53.85 ± 2.32,IC50 [5]: 128 µM
